The record followed here is the supplement of paper PMC11208160.
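Also: IS621 recombinase and bridge RNA in Escherichia coli cells.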

The nature of the series: recombinant barcode read abundance after kanamycin selection (control-corrected) (log10(CPM+1)); higher = more efficient recombination; sequences stand for … in AGTGCAGAGAAAATCGGCCAGTTTTCTCTGCCTGCAGTCCGCATGCCGT…AGATTTATGCAGCGGACTGCCTTTCTCCCAAAGTGATAAACCGGACAGTATCATGGACCGGTTTTCCCGGTAATCCGTATTTGCAAGGTTGGTTTCACT; site = the 11-nt target. In a few lines: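 Reported as log10(CPM+1), each value stands for recombination efficiency. That efficiency is the averaged, control-corrected counts per million of barcodes found at recombinant junctions. Cells from a pooled E. coli library pairing targets with IS621 bridge RNA target-binding loops were plated twice on chloramphenicol/ampicillin LB agar (control) and twice on chloramphenicol/ampicillin/kanamycin with 0.1 mM IPTG.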
With “CAATGGTCTTGGGTTCTAACCTGTTGCGT (site CAATGGTCTAC)”, the “recombinant barcode read abundance (log10)” value was determined as 3.06.

“CAATGGTCTTGGGTTCTAACCTGTTGCGT (site CAATGGTCTAG)”: the “recombinant barcode read abundance (log10)” value came out at 0.638.

Turning to “CAATGGTCTTGGGTTCTAACCTGTTGCGT (site CAATGGTCTAT)”, the “recombinant barcode read abundance (log10)” value was 2.16.

As for “CACAATCCTTGGGTTCTAACCTGTTGCGT (site CACAATCCTAC)”, the “recombinant barcode read abundance (log10)” value is 1.76.

Turning to “CACAATCCTTGGGTTCTAACCTGTTGCGT (site CACACACCTAC)”, the “recombinant barcode read abundance (log10)” value worked out at 0.0965.

“CACACGACTTGGGTTCTAACCTGTTGCCT (site CACACGACTAG)”: the “recombinant barcode read abundance (log10)” value was found to be 0.99.

Take “CACACGACTTGGGTTCTAACCTGTTGCCT (site CACACGTCTAG)”: the “recombinant barcode read abundance (log10)” value was determined as 0.109.

“CACACGTCTTGGGTTCTAACCTGTTGCCT (site CACACGACTAG)”: the “recombinant barcode read abundance (log10)” value turned out to be 0.103.

In the case of “CACACGTCTTGGGTTCTAACCTGTTGCCT (site CACACGTCTAG)”, the “recombinant barcode read abundance (log10)” value is 1.24.

“CACACTACTTGGGTTCTAACCTGTTGCTG (site CACACTACTCA)”: the “recombinant barcode read abundance (log10)” value stood at 0.818.

In the case of “CACACTACTTGGGTTCTAACCTGTTGCTG (site GGTGAGCCTAC)”, the “recombinant barcode read abundance (log10)” value amounted to 0.24.

With “CACAGACCTTGGGTTCTAACCTGTTGCCT (site AACAGACCTAG)”, the “recombinant barcode read abundance (log10)” value worked out at 0.00929.

With “CACAGACCTTGGGTTCTAACCTGTTGCCT (site CACAGACCTAG)”, the “recombinant barcode read abundance (log10)” value was found to be 1.47.

For the sequence “CACAGACCTTGGGTTCTAACCTGTTGCCT (site GACAGACCTAG)”, the “recombinant barcode read abundance (log10)” value turned out to be 0.205.

As for “CACAGACCTTGGGTTCTAACCTGTTGCCT (site TACAGACCTAG)”, the “recombinant barcode read abundance (log10)” value is 0.251.

For “CACAGATCTTGGGTTCTAACCTGTTGCTT (site CAAAGATCTAA)”, the “recombinant barcode read abundance (log10)” value is 0.14.

Consider “CACAGATCTTGGGTTCTAACCTGTTGCTT (site CACAGATCTAA)”, for which the “recombinant barcode read abundance (log10)” value came out at 0.351.

Take “CACAGATCTTGGGTTCTAACCTGTTGCTT (site CAGAGATCTAA)”: the “recombinant barcode read abundance (log10)” value was determined as 0.122.

For “CACAGATCTTGGGTTCTAACCTGTTGCTT (site CATAGATCTAA)”, the “recombinant barcode read abundance (log10)” value came to 0.0763.

For the sequence “CACAGTACTTGGGTTCTAACCTGTTGCCT (site AACAGTACTAG)”, the “recombinant barcode read abundance (log10)” value is 0.0407.

For “CACAGTACTTGGGTTCTAACCTGTTGCCT (site CACAGTACTAG)”, the “recombinant barcode read abundance (log10)” value turned out to be 0.901.

Consider “CACAGTACTTGGGTTCTAACCTGTTGCCT (site GACAGTACTAG)”, for which the “recombinant barcode read abundance (log10)” value was determined as 0.29.

In the case of “CACAGTACTTGGGTTCTAACCTGTTGCCT (site TACAGTACTAG)”, the “recombinant barcode read abundance (log10)” value was 0.0394.

With “CACAGTCCTTGGGTTCTAACCTGTTGCTA (site AGGGTCGCTAG)”, the “recombinant barcode read abundance (log10)” value was 0.049.

Consider “CACAGTCCTTGGGTTCTAACCTGTTGCTA (site CACAGTCCTTA)”, for which the “recombinant barcode read abundance (log10)” value was determined as 0.966.

Consider “CACCAAACTTGGGTTCTAACCTGTTGCCT (site CACCAAACTAG)”, for which the “recombinant barcode read abundance (log10)” value came out at 0.299.

Regarding “CACCAAACTTGGGTTCTAACCTGTTGCCT (site CACCAACCTAG)”, the “recombinant barcode read abundance (log10)” value was determined as 0.0986.

Turning to “CACCACCCTTGGGTTCTAACCTGTTGCGG (site CACCACCCTCC)”, the “recombinant barcode read abundance (log10)” value worked out at 1.35.

With “CACCACCCTTGGGTTCTAACCTGTTGCGG (site GGTACTTCTAA)”, the “recombinant barcode read abundance (log10)” value worked out at 0.358.

As for “CACCGAGCTTGGGTTCTAACCTGTTGCCG (site CAACGAGCTCG)”, the “recombinant barcode read abundance (log10)” value came out at 0.223.

“CACCGAGCTTGGGTTCTAACCTGTTGCCG (site CACCGAGCTCG)”: the “recombinant barcode read abundance (log10)” value is 0.577.

Regarding “CACCGAGCTTGGGTTCTAACCTGTTGCCG (site CAGCGAGCTCG)”, the “recombinant barcode read abundance (log10)” value was 0.534.

With “CACCGAGCTTGGGTTCTAACCTGTTGCCG (site CATCGAGCTCG)”, the “recombinant barcode read abundance (log10)” value is 0.145.

For the sequence “CACGAGCCTTGGGTTCTAACCTGTTGCCT (site CACGAGACTAG)”, the “recombinant barcode read abundance (log10)” value is 0.149.

Turning to “CACGAGCCTTGGGTTCTAACCTGTTGCCT (site CACGAGCCTAG)”, the “recombinant barcode read abundance (log10)” value was found to be 2.24.

Consider “CACGAGCCTTGGGTTCTAACCTGTTGCCT (site CACGAGGCTAG)”, for which the “recombinant barcode read abundance (log10)” value turned out to be 0.0367.

Consider “CACGAGCCTTGGGTTCTAACCTGTTGCCT (site CACGAGTCTAG)”, for which the “recombinant barcode read abundance (log10)” value stood at 1.63.

On to “CACGCATCTTGGGTTCTAACCTGTTGCCT (site CACCAATCTAG)”, for which the “recombinant barcode read abundance (log10)” value stood at 0.211.

With “CACGCATCTTGGGTTCTAACCTGTTGCCT (site CACGCATCTAG)”, the “recombinant barcode read abundance (log10)” value turned out to be 0.822.

As for “CACGGAACTTGGGTTCTAACCTGTTGCCT (site CACGGAACTAG)”, the “recombinant barcode read abundance (log10)” value is 1.82.

With “CACGGAACTTGGGTTCTAACCTGTTGCCT (site CACGTTACTAG)”, the “recombinant barcode read abundance (log10)” value was determined as 0.59.

On to “CACGGGCCTTGGGTTCTAACCTGTTGCCT (site CACGGGCCTAG)”, for which the “recombinant barcode read abundance (log10)” value turned out to be 0.466.

Turning to “CACGGGCCTTGGGTTCTAACCTGTTGCCT (site GACAGGCCTAG)”, the “recombinant barcode read abundance (log10)” value was determined as 0.0551.

Regarding “CACTAGACTTGGGTTCTAACCTGTTGCCG (site CACTAGACTCG)”, the “recombinant barcode read abundance (log10)” value is 1.37.

As for “CACTAGACTTGGGTTCTAACCTGTTGCCG (site GTGACTGCTAC)”, the “recombinant barcode read abundance (log10)” value stood at 0.242.

Turning to “CACTCCTCTTGGGTTCTAACCTGTTGCTT (site CACTCCTCTAA)”, the “recombinant barcode read abundance (log10)” value came out at 0.0523.

Regarding “CACTCCTCTTGGGTTCTAACCTGTTGCTT (site CTCTGCTCTAA)”, the “recombinant barcode read abundance (log10)” value stood at 0.0209.

As for “CACTGAGCTTGGGTTCTAACCTGTTGCCT (site CACTGAGCTAG)”, the “recombinant barcode read abundance (log10)” value worked out at 0.845.

For “CACTGAGCTTGGGTTCTAACCTGTTGCCT (site TACTGAGCTAG)”, the “recombinant barcode read abundance (log10)” value came to 0.229.

For “CACTGATCTTGGGTTCTAACCTGTTGCCT (site CACTGATCTAG)”, the “recombinant barcode read abundance (log10)” value came to 1.28.

On to “CACTGATCTTGGGTTCTAACCTGTTGCCT (site CACTGCTCTAG)”, for which the “recombinant barcode read abundance (log10)” value came to 0.0175.

For the sequence “CACTGATCTTGGGTTCTAACCTGTTGCCT (site CACTGGTCTAG)”, the “recombinant barcode read abundance (log10)” value came to 0.281.

For the sequence “CACTGATCTTGGGTTCTAACCTGTTGCCT (site CACTGTTCTAG)”, the “recombinant barcode read abundance (log10)” value is 0.302.

“CACTTTGCTTGGGTTCTAACCTGTTGCCT (site AGGGAGACTGA)”: the “recombinant barcode read abundance (log10)” value was 0.145.

Turning to “CACTTTGCTTGGGTTCTAACCTGTTGCCT (site CACTTTGCTAG)”, the “recombinant barcode read abundance (log10)” value stood at 0.207.

As for “CAGAATCCTTGGGTTCTAACCTGTTGCGG (site CAGAATCCTCC)”, the “recombinant barcode read abundance (log10)” value is 1.73.

For the sequence “CAGAATCCTTGGGTTCTAACCTGTTGCGG (site TCTCTCGCTAG)”, the “recombinant barcode read abundance (log10)” value amounted to 0.0949.

“CAGACGACTTGGGTTCTAACCTGTTGCCA (site CAGACGACTTG)”: the “recombinant barcode read abundance (log10)” value worked out at 0.37.

As for “CAGACGACTTGGGTTCTAACCTGTTGCCA (site TGCTGTCCTAA)”, the “recombinant barcode read abundance (log10)” value was determined as 0.0664.

For “CAGAGATCTTGGGTTCTAACCTGTTGCTT (site CAAAGATCTAA)”, the “recombinant barcode read abundance (log10)” value came out at 0.328.

For “CAGAGATCTTGGGTTCTAACCTGTTGCTT (site CACAGATCTAA)”, the “recombinant barcode read abundance (log10)” value came to 0.137.

With “CAGAGATCTTGGGTTCTAACCTGTTGCTT (site CAGAGATCTAA)”, the “recombinant barcode read abundance (log10)” value came out at 1.33.

As to “CAGAGATCTTGGGTTCTAACCTGTTGCTT (site CATAGATCTAA)”, the “recombinant barcode read abundance (log10)” value was found to be 0.104.

As to “CAGAGCTCTTGGGTTCTAACCTGTTGCCG (site AGACAGACTAC)”, the “recombinant barcode read abundance (log10)” value was determined as 0.078.

With “CAGAGCTCTTGGGTTCTAACCTGTTGCCG (site CAGAGCTCTCG)”, the “recombinant barcode read abundance (log10)” value was 2.05.

As to “CAGAGTCCTTGGGTTCTAACCTGTTGCAT (site CAGAGTCCTAG)”, the “recombinant barcode read abundance (log10)” value was found to be 0.852.

For “CAGAGTCCTTGGGTTCTAACCTGTTGCAT (site CAGAGTCCTAT)”, the “recombinant barcode read abundance (log10)” value came out at 1.88.

As to “CAGATTCCTTGGGTTCTAACCTGTTGCCT (site CAGATTCCTAG)”, the “recombinant barcode read abundance (log10)” value was found to be 0.542.

Regarding “CAGATTCCTTGGGTTCTAACCTGTTGCCT (site GAGATTCCTAG)”, the “recombinant barcode read abundance (log10)” value worked out at 0.222.

“CAGCCACCTTGGGTTCTAACCTGTTGCCT (site AAGCCACCTAG)”: the “recombinant barcode read abundance (log10)” value is 0.0775.

Take “CAGCCACCTTGGGTTCTAACCTGTTGCCT (site CAGCCACCTAG)”: the “recombinant barcode read abundance (log10)” value was 1.4.

Consider “CAGCCACCTTGGGTTCTAACCTGTTGCCT (site GAGCCACCTAG)”, for which the “recombinant barcode read abundance (log10)” value came to 0.0262.

“CAGCCACCTTGGGTTCTAACCTGTTGCCT (site TAGCCACCTAG)”: the “recombinant barcode read abundance (log10)” value was found to be 0.

Regarding “CAGCGGTCTTGGGTTCTAACCTGTTGCGA (site CAGCGGTCTTC)”, the “recombinant barcode read abundance (log10)” value was found to be 1.65.

With “CAGCGGTCTTGGGTTCTAACCTGTTGCGA (site TTATACACTCT)”, the “recombinant barcode read abundance (log10)” value came out at 0.0232.

Consider “CAGCTAACTTGGGTTCTAACCTGTTGCCT (site CAAATAACTAG)”, for which the “recombinant barcode read abundance (log10)” value was found to be 0.0162.

Take “CAGCTAACTTGGGTTCTAACCTGTTGCCT (site CAGCTAACTAG)”: the “recombinant barcode read abundance (log10)” value was 1.54.
